Source: US20170056423A1 (Gilead Sciences, Inc., priority 2012, published 2017)
Read-outs that look alike come from different tables or passages of the source.

Experiments:
[1] = tested on: cytochrome P450 enzymes (all isoforms tested); test: in vitro; details: human
[2] = 25 mg level
Experimental: In order to provide a robust assessment of pharmacokinetic comparisons between test versus reference treatments, a balanced Williams 4×4 design was used in each cohort.
The evaluation used two cohorts of twenty patients. In Cohort 1, the following study treatments were administered.

[3] = target: aryl hydrocarbon receptor (Homo sapiens, UniProt P35869); test: aryl hydrocarbon receptor activation
[4] = Study 1, while receiving GS-7340 SA (25 mg)
HIV-1 = details: against HIV-1 in T cells, activated PBMCs, and macrophages
[5] = target: human pregnane X receptor (Homo sapiens, UniProt O75469); test: pregnane X receptor activation
Chain of human pregnane X receptor (O75469 whole entry): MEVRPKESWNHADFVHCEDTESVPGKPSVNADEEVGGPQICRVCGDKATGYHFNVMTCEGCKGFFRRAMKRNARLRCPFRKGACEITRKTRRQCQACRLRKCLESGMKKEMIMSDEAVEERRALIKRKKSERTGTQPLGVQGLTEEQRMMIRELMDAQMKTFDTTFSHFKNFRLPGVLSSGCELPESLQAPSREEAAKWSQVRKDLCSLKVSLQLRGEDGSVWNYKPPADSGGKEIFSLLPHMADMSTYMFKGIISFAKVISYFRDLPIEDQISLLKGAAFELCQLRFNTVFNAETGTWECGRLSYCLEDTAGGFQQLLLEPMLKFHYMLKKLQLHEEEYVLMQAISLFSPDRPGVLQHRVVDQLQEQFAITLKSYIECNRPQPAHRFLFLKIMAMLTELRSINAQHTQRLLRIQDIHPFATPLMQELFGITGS

UGT1A1 = UGT1A1 (Homo sapiens, UniProt P22309); details: at concentrations up to 50 μM
Chain of UGT1A1 (P22309 26-533): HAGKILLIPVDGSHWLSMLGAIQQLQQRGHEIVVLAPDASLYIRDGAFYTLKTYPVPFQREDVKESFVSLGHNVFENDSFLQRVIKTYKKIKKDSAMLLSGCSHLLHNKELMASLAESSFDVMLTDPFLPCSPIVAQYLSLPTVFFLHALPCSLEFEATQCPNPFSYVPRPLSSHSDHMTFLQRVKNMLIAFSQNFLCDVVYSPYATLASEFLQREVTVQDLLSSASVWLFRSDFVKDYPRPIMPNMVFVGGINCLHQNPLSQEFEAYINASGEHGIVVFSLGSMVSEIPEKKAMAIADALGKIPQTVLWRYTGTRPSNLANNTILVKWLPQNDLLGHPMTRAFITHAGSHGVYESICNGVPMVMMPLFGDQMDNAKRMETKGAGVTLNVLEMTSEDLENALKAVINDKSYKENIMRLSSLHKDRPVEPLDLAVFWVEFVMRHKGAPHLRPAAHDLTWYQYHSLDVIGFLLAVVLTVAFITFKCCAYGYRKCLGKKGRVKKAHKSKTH

CYP2D6 = CYP2D6 (Homo sapiens, UniProt P10635); test: CYP2D6 inhibition; format: in vitro ADME
Chain of CYP2D6 (P10635 whole entry): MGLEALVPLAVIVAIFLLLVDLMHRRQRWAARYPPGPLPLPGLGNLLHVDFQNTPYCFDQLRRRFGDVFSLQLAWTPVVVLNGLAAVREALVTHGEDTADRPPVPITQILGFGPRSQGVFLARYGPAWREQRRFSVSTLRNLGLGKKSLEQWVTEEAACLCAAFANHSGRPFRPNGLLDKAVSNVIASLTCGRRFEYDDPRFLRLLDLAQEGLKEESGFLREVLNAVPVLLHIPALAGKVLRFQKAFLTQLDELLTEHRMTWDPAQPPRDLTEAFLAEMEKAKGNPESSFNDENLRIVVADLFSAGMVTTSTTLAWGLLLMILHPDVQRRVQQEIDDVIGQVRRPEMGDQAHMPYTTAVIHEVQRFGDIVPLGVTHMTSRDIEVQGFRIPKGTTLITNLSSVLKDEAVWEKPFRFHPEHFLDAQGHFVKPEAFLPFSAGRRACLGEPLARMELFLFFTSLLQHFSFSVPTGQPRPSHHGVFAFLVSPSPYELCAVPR

[6] = tested on: transporters including P-glycoprotein, MRP1, and MRP2; test: permeability assays for transporter interaction; format: in vitro ADME
[7] = tested on: cytochrome P450, UGT1A1, or P-glycoprotein; test: xenobiotic receptor transactivation and human hepatocyte induction studies; format: in vitro ADME; details: at up to 30 μM
CYP1A2 = CYP1A2 (Homo sapiens, UniProt P05177); test: CYP1A2 inhibition; format: in vitro ADME
Chain of CYP1A2 (P05177 whole entry): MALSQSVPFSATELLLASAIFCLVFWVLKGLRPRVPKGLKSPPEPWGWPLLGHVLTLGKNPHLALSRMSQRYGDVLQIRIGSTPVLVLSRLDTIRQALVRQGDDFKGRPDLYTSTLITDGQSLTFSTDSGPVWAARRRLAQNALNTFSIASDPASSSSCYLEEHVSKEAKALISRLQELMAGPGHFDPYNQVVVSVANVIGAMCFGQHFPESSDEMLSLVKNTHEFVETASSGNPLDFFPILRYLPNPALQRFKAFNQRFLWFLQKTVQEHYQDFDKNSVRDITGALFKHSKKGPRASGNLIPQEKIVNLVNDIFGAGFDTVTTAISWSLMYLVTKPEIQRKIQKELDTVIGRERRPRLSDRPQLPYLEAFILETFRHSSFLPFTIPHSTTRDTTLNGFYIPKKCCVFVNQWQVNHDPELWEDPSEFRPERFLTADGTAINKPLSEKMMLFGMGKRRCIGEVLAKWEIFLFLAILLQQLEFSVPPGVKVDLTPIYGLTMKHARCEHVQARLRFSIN

CYP2C8 = CYP2C8 (Homo sapiens, UniProt P10632); test: CYP2C8 inhibition; format: in vitro ADME
Chain of CYP2C8 (P10632 whole entry): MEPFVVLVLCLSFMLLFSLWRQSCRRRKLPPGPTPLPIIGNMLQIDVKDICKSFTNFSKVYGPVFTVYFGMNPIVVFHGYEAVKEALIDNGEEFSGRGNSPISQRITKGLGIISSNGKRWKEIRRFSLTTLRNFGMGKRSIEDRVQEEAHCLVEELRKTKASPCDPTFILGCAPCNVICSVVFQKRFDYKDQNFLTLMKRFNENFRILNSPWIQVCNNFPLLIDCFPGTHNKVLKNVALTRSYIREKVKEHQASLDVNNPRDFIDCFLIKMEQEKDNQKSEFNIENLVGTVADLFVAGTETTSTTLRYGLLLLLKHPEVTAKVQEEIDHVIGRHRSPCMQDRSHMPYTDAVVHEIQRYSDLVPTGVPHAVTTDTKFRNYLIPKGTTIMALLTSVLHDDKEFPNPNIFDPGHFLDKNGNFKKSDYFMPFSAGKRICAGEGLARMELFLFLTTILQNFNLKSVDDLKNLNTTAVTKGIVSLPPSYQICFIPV

CYP2B6 = CYP2B6 (Homo sapiens, UniProt P20813); test: CYP2B6 inhibition; format: in vitro ADME; details: similar potency to ritonavir
Chain of CYP2B6 (P20813 whole entry): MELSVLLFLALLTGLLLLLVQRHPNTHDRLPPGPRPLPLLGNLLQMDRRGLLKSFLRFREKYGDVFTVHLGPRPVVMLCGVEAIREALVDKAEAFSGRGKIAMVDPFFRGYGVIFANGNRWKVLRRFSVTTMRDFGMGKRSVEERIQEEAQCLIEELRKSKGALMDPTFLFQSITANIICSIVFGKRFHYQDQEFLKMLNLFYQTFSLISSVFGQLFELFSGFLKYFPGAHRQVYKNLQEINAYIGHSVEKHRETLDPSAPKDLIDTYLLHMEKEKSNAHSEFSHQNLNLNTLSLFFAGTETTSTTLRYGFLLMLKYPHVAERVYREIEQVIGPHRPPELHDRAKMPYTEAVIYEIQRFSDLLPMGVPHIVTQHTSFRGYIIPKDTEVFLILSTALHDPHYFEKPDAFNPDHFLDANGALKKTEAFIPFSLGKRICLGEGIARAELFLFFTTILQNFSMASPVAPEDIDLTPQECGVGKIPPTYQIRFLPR

CYP2C9 = CYP2C9 (Homo sapiens, UniProt P11712); test: CYP2C9 inhibition; format: in vitro ADME
Chain of CYP2C9 (P11712 whole entry): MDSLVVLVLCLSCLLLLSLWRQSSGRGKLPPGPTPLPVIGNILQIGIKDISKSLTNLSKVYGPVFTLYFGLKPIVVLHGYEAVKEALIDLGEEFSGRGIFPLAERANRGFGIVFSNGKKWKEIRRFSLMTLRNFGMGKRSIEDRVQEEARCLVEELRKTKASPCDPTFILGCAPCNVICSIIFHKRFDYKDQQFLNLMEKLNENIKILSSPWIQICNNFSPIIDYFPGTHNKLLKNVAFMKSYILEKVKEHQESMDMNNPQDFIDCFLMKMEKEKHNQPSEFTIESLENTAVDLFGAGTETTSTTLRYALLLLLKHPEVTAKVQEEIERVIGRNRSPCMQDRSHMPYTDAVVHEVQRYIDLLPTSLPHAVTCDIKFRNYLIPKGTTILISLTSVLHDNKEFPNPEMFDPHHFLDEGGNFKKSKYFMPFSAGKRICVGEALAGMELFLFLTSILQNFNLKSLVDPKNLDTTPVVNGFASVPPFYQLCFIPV

CYP2C19 = CYP2C19 (Homo sapiens, UniProt P33261); test: CYP2C19 inhibition; format: in vitro ADME
BCRP [8] = target: T1, BCRP (Homo sapiens, UniProt Q9UNQ0); test: BCRP inhibition assay, Hoechst 33342 accumulation in MDCKII-ABCG2 cells; format: cell-based; details: Hoechst 33342, MDCKII-ABCG2 cells
T1 construct: expressed in transfected cells; host or cells: MDCKII (Madin-Darby canine kidney) cells, MDCKII-ABCG2 / MDCKII-BCRP
T1 sequence (Q9UNQ0 whole entry): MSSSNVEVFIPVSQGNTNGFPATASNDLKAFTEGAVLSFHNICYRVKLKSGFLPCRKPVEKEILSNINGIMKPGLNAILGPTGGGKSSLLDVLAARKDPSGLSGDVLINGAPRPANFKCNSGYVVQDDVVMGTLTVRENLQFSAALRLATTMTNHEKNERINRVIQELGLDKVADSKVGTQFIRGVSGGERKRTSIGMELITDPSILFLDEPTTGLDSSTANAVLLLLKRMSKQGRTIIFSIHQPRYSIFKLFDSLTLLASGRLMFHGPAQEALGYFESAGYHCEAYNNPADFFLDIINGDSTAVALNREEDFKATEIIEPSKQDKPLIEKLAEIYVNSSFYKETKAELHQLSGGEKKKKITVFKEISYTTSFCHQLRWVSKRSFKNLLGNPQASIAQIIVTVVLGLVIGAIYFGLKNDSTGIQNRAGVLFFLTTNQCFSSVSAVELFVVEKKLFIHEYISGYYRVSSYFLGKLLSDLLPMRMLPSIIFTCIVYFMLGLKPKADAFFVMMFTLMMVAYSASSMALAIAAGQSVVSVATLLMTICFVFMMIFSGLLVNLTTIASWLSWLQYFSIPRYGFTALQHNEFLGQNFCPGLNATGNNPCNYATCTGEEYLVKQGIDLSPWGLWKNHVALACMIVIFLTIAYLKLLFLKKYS
Experimental: (§1) Pgp and BCRP inhibition assays in transfected Madin-Darby canine kidney (MDCKII) cells: Inhibition of Pgp-mediated transport was studied using the Pgp substrate calcein AM and MDCKII cells transfected with the human MDR1 (ABCB1) gene (encoding Pgp). Similarly, inhibition of BCRP-mediated transport was studied using the BCRP substrate Hoechst 33342 and MDCKII cells transfected with the human ABCG2 gene (encoding BCRP). Briefly, MDCKII cells were seeded in 96-well black cell culture plates with clear bottoms at a density of 5×10^4 cells/well and grown to confluence overnight. Test compounds were diluted in cell culture medium containing 10 μM Hoechst 33342 and incubated for 3 hours with MDCKII-BCRP and nontransfected cells. Following removal of media containing Hoechst 33342 and test compound, cells were washed twice with warm medium and lysed at room temperature for 5-10 minutes in a buffer containing 20 mM Tris-HCl pH 9.0 and 0.4% Triton X-100. Wells were analyzed for Hoechst 33342 fluorescence at an excitation of 353 nm and an emission of 460 nm. […]

[9] = target: uridine glucuronosyltransferase 1A1 (Homo sapiens, UniProt P22309); test: UGT1A1 inhibition by cobicistat; format: in vitro ADME
Chain of uridine glucuronosyltransferase 1A1 (P22309 26-533): as the sequence (P22309 26-533) above

caco-2 cell monolayers = test: bidirectional permeability of HIV protease inhibitors and GS-7340 through caco-2 monolayers; format: in vitro ADME; details: COBI 90 μM, GS-7340 10 μM, over 2 hours
[10] = target: T2, Pgp (multidrug resistance protein 1; MDR1) (Homo sapiens, UniProt P08183); test: Pgp substrate assay, bidirectional permeability in MDCKII-MDR1 cells; format: in vitro ADME; details: 10 μM, MDCKII-MDR1 vs MDCKII-WT, ± CSA
T2 construct: expressed in transfected cells; host or cells: MDCKII (Madin-Darby canine kidney) cells, MDCKII-MDR1
Experimental: (§2) Pgp and BCRP substrate assays in transfected MDCKII cells: MDCKII cells were grown to confluence over 4-6 days on 24-well PET transwell plates (BD Biosciences). The same buffers were used in the donor and receiver wells as described above for caco-2 studies. Experiments were conducted as described above for caco-2 transepithelial transport studies and samples analyzed by LC/MS/MS. Similar quality control and acceptance criteria were used as those described above for caco-2 studies. TEER values and the permeability of lucifer yellow, atenolol, and propranolol were determined to meet acceptance criteria for each batch of assay plates. Efflux ratios were determined to be at least 3-fold higher in transfected versus nontransfected monolayers for the model Pgp substrate vinblastine and BCRP substrate prazosin.
(§3) Data analysis: The 50% inhibition constants (IC50) values for transporters in the fluorescent accumulation studies done in MDCKII cells, defined as the test article concentration needed to inhibit the maximal transporter specific transport by 50%, were calculated using nonlinear curve fitting of inhibition versus concentration to a sigmoidal curve with a variable Hill coefficient using GraphPad Prism 5 (GraphPad Software Inc., San Diego, Calif.). […]

Pgp = target: T3, Pgp (Homo sapiens, UniProt P08183); test: Pgp inhibition assay, calcein AM accumulation in MDCKII-MDR1 cells; format: cell-based
T3 construct: expressed in transfected cells; host or cells: MDCKII (Madin-Darby canine kidney) cells, MDCKII-MDR1
Experimental: as §1

BCRP [11] = target: T1, BCRP; test: BCRP substrate assay, bidirectional permeability in MDCKII-BCRP cells; format: in vitro ADME; details: 10 μM, MDCKII-BCRP vs MDCKII-WT, ± Ko134
Experimental: as §2, §3

cytochrome P450 enzymes = details: in vitro or in vivo in humans
[12] = in vivo
[13] = tested on: UDP-glucuronosyltransferases; test: UDP-glucuronosyltransferase interaction; format: in vitro ADME, human; details: in vitro or in vivo in humans

Chain of aryl hydrocarbon receptor (P35869 11-848, species assumed): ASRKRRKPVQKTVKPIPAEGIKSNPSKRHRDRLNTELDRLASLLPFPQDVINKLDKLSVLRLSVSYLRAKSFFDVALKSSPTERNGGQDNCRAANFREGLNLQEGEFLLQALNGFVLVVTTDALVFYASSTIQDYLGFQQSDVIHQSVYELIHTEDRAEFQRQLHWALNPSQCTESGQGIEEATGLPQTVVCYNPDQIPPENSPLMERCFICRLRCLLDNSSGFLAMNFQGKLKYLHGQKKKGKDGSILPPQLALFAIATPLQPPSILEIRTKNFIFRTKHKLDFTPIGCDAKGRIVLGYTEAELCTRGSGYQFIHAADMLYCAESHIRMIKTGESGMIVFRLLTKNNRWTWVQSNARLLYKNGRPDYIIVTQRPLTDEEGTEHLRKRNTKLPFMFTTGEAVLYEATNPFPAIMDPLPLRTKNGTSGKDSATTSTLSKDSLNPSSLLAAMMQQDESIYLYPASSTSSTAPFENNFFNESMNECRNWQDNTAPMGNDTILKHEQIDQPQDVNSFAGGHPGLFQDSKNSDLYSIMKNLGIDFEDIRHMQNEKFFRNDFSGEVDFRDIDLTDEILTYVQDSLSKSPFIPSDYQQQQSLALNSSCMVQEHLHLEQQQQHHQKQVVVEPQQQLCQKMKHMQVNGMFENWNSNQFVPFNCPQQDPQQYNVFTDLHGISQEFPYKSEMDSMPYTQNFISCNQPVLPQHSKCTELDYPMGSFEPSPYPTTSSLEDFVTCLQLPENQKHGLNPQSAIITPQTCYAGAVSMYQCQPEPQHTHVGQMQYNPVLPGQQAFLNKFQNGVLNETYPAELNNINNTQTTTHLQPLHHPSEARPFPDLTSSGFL

## CC(C)OC(=O)[C@H](C)N[P@](=O)(CO[C@H](C)Cn1cnc2c(N)ncnc21)Oc1ccccc1 [GS-7340, 9-[(R)-2-[[(S)-[[(S)-1-(isopropoxycarbonyl)ethyl]amino]phenoxyphosphinyl]methoxy]propyl]adenine]
[1]
  IC50: > 7 µM
[2]; Cohort 1 (Formulation 1, monolayer), FIG. 6
  GS-7340 levels, fold higher when administered with cobicistat: 2.2 fold
[2]; Cohort 2 (Formulation 2, bilayer), FIG. 7
  GS-7340 levels, fold higher when administered with cobicistat: 2.2 fold
[3]
  activation of aryl hydrocarbon receptor: not an activator
[4]
  adverse event leading to one discontinuation: rhabdomyolysis (Grade 2)
HIV-1
  enhanced anti-HIV activity relative to tenofovir: 500- to 1000 fold
[5]
  activation of human pregnane X receptor: not an activator
UGT1A1
  inhibition of UGT1A1 function: does not inhibit

## CC(C)c1nc(CN(C)C(=O)N[C@@H](CCN2CCOCC2)C(=O)N[C@H](CC[C@H](Cc2ccccc2)NC(=O)OCc2cncs2)Cc2ccccc2)cs1 [cobicistat, 1,3-thiazol-5-ylmethyl (2R,5R)-(5-{[(2S)-2-[(methyl{[2-(propan-2-yl)-1,3-thiazol-4-yl]methyl}carbamoyl)amino]]-4-(morpholin-4-yl)butanamido}-1,6-diphenylhexan-2-yl)carbamate]
CYP2D6
  inhibition of CYP2D6: weak inhibitor
[6]
  substrate or inhibitor of transporters: not a strong substrate or inhibitor
[7]
  potential as inducer of cytochrome P450, UGT1A1, or P-glycoprotein: no/weak potential as an inducer
CYP1A2
  inhibition of CYP1A2: does not appreciably inhibit
CYP2C8
  inhibition of CYP2C8: does not appreciably inhibit
CYP2B6
  inhibition of CYP2B6: moderate inhibitor
CYP2C9
  inhibition of CYP2C9: does not appreciably inhibit
CYP2C19
  inhibition of CYP2C19: does not appreciably inhibit
BCRP [8]
  IC50: 59 ± 28 µM
[9]
  inhibition of uridine glucuronosyltransferase 1A1: does not appreciably inhibit
caco-2 cell monolayers
  effect on A-B flux of GS-7340: increased the A-B flux
  effect on B-A flux of GS-7340: reducing B-A flux
[10]
  substrate for Pgp: substrate
Pgp
  IC50: 36 ± 10 µM
BCRP [11]
  substrate for BCRP: substrate

## C[C@H](Cn1cnc2c(N)ncnc21)OCP(=O)(O)O [tenofovir, 9-R-[(2-phosphonomethoxy)propyl]adenine]
Cytochrome P450 enzymes
  interaction with human cytochrome P450 enzymes as substrate, inhibitor, or inducer: does not interact significantly
[12]
  systemic exposure equivalent, fold higher than a dose of tenofovir alone: 3 to 4 fold
[13]
  interaction with UDP-glucuronosyltransferases as substrate, inhibitor, or inducer: does not interact significantly
